Key:
Format in all cases: in vivo, C57BL/6 mice
[1] = system: old mice (~20 months); assay: Novel object recognition test (NOR), memory index; details: single intrahippocampal injection, versus vehicle; for recognition memory at short term: 2 hours after training trial; for recognition memory at long-term: 5 days after training trial
Description: (§1) Different experimental group of old mice (~20 months of age) were randomly injected on the hilus region of both brain hemispheres with vehicle (PBS or destillated water) or with one of four different molecules: Vitamin B12 (50 mg/ml; Vet one, ref: 510218), S-(5'-Adenosyl)-L-methionine chloride (0,25 mg/ml; Sigma, ref: A7007), folic acid (0,25 mg/ml; Sigma, ref: F7876-10G) or synthetic FRa binding peptide, peptide having amino acid sequence SEQ ID NO: 1, (2,5 mg/ml and 5 mg/ml, diluted in PBS; Abyntec). The pH of Vitamin B12, methionine or folic acid were adjusted to ~7 to avoid negative effects due to overly acidic medium. One week after intracerebral injections, mice were assessed with behavioural (open field trial) and memory tests (novel object recognition) to study potential functional effects of different metabolites on central nervous system. Two weeks after surgeries mice were finally perfused just after finalized Y maze test performing.
(§2) After anesthesia with isofluorane, mice were secured in a stereotaxic frame (Kopf). Holes were drilled bilaterally in the skull at the injection sites (one per hemisphere) by microdrill with 0.5 mm drill bit. Stereotaxic coordinates used for intrahippocampal injections were as follows (from bregma): anterior-posterior 2.2, lateral 1.4, dorsoventral 2.0. A 33-gauge needle Hamilton syringe coupled to a syring pump controller mounted to the stereotaxic frame was used to inject 2µl of vehicle or metabolites at each site. Injections occurred at a rate of 0.25 µl/min, after which the needle was left in place for an additional 3 min, stopping another 3 minute in the halfway. After injections were completed, the skin was sutured and the animals were allowed to recover for 1 h on a heating pad before returning to the home cage. Mice remained in the home cage for an additional 1 week before the start of behavioral testing, being sacrificed 2 weeks after surgery.
Both open field (OF) and novel object recognition (NOR) tests were performed as described previously (Rodríguez-Matellán A, et al., In Vivo Reprogramming Ameliorates Aging Features in Dentate Gyrus Cells and Improves Memory in Mice. Stem Cell Reports. 2020 Nov 10;15(5):1056-1066. ). Locomotor activity as well as anxiety and depression-like behaviours in old mice were evaluated using OF. This test was used as habituation of NOR test. In brief, on the first day, the mice were placed individually for 10 min in a 45x45-cm plastic box with vertical opaque walls. Each session was recorded and different data like distance, speed, immobile time and time on center square of the box were analysed with Anymaze software. On the second day, mice were placed in the same box for 5 min, allowing them to explore two identical objects: A and B (two black rooks). Both objects were placed on the long axis of the cage, each 13 cm from the cage end. After each exposure, the objects and the cage were wiped with 70% ethanol to eliminate odors which potentially could condition successive mice behaviour. Two hours after the familiarization trial, each mouse was released into the box with the same object previously used (object A) and a new one (object C, a tower of coloured plastic pieces), instead of the object B (short-term memory test). The position of object C was the same as that of object B in the familiarization trial. The mice were given 5 min to explore the box. Five days later, the mice were released again into the box, with object A in the same position and another new object (object D, a falcon tube filled with wood chips) in the same position of the object C in the previous test. Again, animals were allowed 5 min to explore the box (Long-term memory test). Animals were considered to show recognition when their head was <2 cm from the object.
The memory index (Ml) was used to measure recognition memory performance. […]

[2] = system: GluN2B; assay: GluN2B immunoreactivity in molecular layer of dentate gyrus; details: single intrahippocampal injection, versus vehicle
Description: as §1
After anesthesia with isofluorane, mice were secured in a stereotaxic frame (Kopf). Holes were drilled bilaterally in the skull at the injection sites (one per hemisphere) by microdrill with 0.5 mm drill bit. […]
For GluN2B antibodies, the quantification was carried out with the imaged program by measuring the percentage of area occupied by the receptor immunoreactivity in the molecular layer of dentate gyrus. […]

[3] = system: perineuronal nets (PNN); assay: Perineuronal nets (PNN) density labeled with WFA in dentate gyrus; details: single intrahippocampal injection, versus vehicle-injected aged mice
Description: as §1, with “Two weeks after surgeries mice were finally perfused just after finalized Y maze test performing.” left out
(§3) Quantifications for density of DCX/Blbp/CIdU-immunoreactive positive cells were performed by counting in four different consecutive medial brain sections the number of cells localized in each whole DG (distinguishing between SGZ and GCL) and the adjacent hilus region. For perineuronal nets of extracellular matrix, positive units labelled with WFA were counted in the dentate gyrus (including granular cell layer and hilus) from three different consecutive medial brain sections. […]

[4] = system: old mice (~20 months); assay: Open field test (OF); details: single bilateral intrahippocampal (hilus) injection, 2µl per site; tested one week after surgery; versus vehicle
Description: as §1, §2
Both open field (OF) and novel object recognition (NOR) tests were performed as described previously (Rodríguez-Matellán A, et al., In Vivo Reprogramming Ameliorates Aging Features in Dentate Gyrus Cells and Improves Memory in Mice. Stem Cell Reports. 2020 Nov 10;15(5):1056-1066. ). Locomotor activity as well as anxiety and depression-like behaviours in old mice were evaluated using OF. This test was used as habituation of NOR test. In brief, on the first day, the mice were placed individually for 10 min in a 45x45-cm plastic box with vertical opaque walls. Each session was recorded and different data like distance, speed, immobile time and time on center square of the box were analysed with Anymaze software. On the second day, mice were placed in the same box for 5 min, allowing them to explore two identical objects: A and B (two black rooks). […]

[5] = system: old mice (~20 months); assay: Y maze test for spatial memory; details: percentage of time in novel arm; single intrahippocampal injection; two weeks after surgery; versus vehicle
Description: as §1, with “performing. […]” for “performing.”
To assess spatial memory, an Y maze test based on published protocols with modifications (Kraeuter AK, et al. The Y-Maze for Assessment of Spatial Working and Reference Memory in Mice. Methods Mol Biol. 2019;1916:105-111. ) was performed. […] The number of entries into and the time spent in each arm, were registered from video recordings and analysed by AnyMaze software. […]

[6] = system: neuronal precursors cells; assay: Adult neurogenesis markers in dentate gyrus, immunofluorescence cell density; details: subgranular zone; unique dose hippocampal injection; versus vehicle
Description: as §1, §2
Mice received three injections each 2 hours (200 ul/injection, in alternative sides of body) of 5-Chloro-2'-deoxy-Uridine (CldU, Sigma reference C6891; i.p. 42.75 mg/Kg bw) one week after cranial surgery and microinjections of solutions. In this way we were able to follow the effects of treatment in the proliferation of new cells at the subgranular zone, essential zone for neurogenesis process. […]
as §3

[7] = system: H3K9me3; assay: Histone methylation immunofluorescence in dentate gyrus; details: 14 days since injection, versus vehicle
Description: as §1
(§4) After anesthesia with isofluorane, mice were secured in a stereotaxic frame (Kopf). […]
(§5) For 5mC, H3K9me3 and H4K20me3 antibodies, acquisition confocal settings (laser intensity, gain, pinhole) were kept constant for all images, which were captured in the same confocal session. […] The area above the threshold was then measured in Fiji and the mean fluorescence in the ROI was calculated and compared between vehicle and folate experimental groups.

[8] = system: H4K20me3; assay: as above; details: 14 days since injection, versus vehicle
Description: as §1, §4, §5

[9] = system: 5-methycytosine (5mC); assay: DNA methylation immunofluorescence in hippocampal neurons; details: versus vehicle
Description: as §1
as §2, with “After injections were completed, the skin was sutured and the animals were allowed to recover for 1 h on a heating pad before returning to the home cage. Mice remained in the home cage for an additional 1 week before the start of behavioral testing, being sacrificed 2 weeks after surgery.” left out
as §5

[10] = system: 5-hydroxymethylcytosine (5hmc); assay: DNA hydroxymethylation in hippocampal neuronal layers; details: versus vehicle
Description: as §1
(§6) After anesthesia with isofluorane, mice were secured in a stereotaxic frame (Kopf). Holes were drilled bilaterally in the skull at the injection sites (one per hemisphere) by microdrill with 0.5 mm drill bit. Stereotaxic coordinates used for intrahippocampal injections were as follows (from bregma): anterior-posterior 2.2, lateral 1.4, dorsoventral 2.0. […]

[11] = system: Dnmt1; assay: Western blot of Dnmt1 in hippocampal extracts; details: western blot densitometry; versus vehicle
Description: as §1, §4
Mice were anesthetized with an intraperitoneal pentobarbital injection (Dolethal, 60 mg/kg body weight) and transcardially perfused with saline. […] Serial parasagittal sections ([…] thick) were cryoprotected in 30% sucrose solution in PB and stored in ethylene glycol/glycerol at […] until they were analyzed. […]

[12] = system: Sox2; assay: Sox2 expression in dentate gyrus, immunoreactivity; details: different regions of dentate gyrus (hilus, GCL, SGZ); unique-dose injection in aged mice; versus vehicle
Description: as §1, §6

Compound	recognition memory at short term [1]	recognition memory at long-term [1]	expression of GluN2B immunoreactivity (percentage of area occupied) [2]	PNN density labeled with WFA [3]	anxiety-depression like behavior (central square time) [4]	locomotor activity (distance travelled, speed and immobile time) [4]	spatial memory [5]	doublecortin-ir cell density [6]	early neuronal precursor like blbp-ir cells density [6]	new born CIdU-ir cells density [6]	one-week-old neurons (double Dcx/CldU-ir cells) density [6]	level of methylation at H3K9me3 [7]	level of methylation at H4K20me3 [8]	level of 5mC, mean intensity ([9]; granular neuronal layer of dentate gyrus (P=0.0132))	level of 5mC, mean intensity ([9]; pyramidal layer of CA1 (P-value=0.06))	level of 5mC, mean intensity ([9]; pyramidal layer of CA3 (P-value=0.05))	level of 5hmc [10]	expression of Dnmt1 hippocampal levels [11]	SOX2 expression [12]
Nc1nc2ncc(CNc3ccc(C(=O)N[C@@H](CCC(=O)O)C(=O)O)cc3)nc2c(=O)[nH]1 [folate, folic acid]	not significant differences	improves	increase	significant reduction	improvement	improvement	improvement	neither found differences	subtle but non-significant tendency of increase	subtle but non-significant tendency of increase	subtle but non-significant tendency of increase	does not modify	does not modify	significant changes	important tendency	important tendency	not significant changes	increased	
CTVRTSAEC (source 1..9: organism (original language) = constructo sintetico) [FRa binding peptide]	Not significant differences	significant improvement	increase	reducing the density															significant increase
Vitamin B12	not revealed significant differences	not revealed significant differences			not revealed any alteration	not revealed any alteration	not revealed significant differences												

Source: EP4413991A1, “PEPTIDE FOR COGNITIVE IMPROVEMENT” (Consejo Superior De Investigaciones Científicas, priority 2023, dated 2024)
